In one experiment the test system is THP-1 cells. The experiment can be described thus: CD86 and CD54 expression in THP-1 cells (flow cytometry, RFI). The note with it: overnight culture, relative fluorescence intensity. Format: cell-based, human. As for the experimental part:
THP-1 cells were seeded at a density of 2.0×10^5 cells/mL in 50 mL of RPMI1640 medium containing 10% FBS and 0.05 mM mercaptoethanol in a 75-cm^2 flask, and precultured for 48 hours.
The precultured THP-1 cells were harvested by centrifugation and suspended at 2.0×10^6 cells/mL in RPMI1640 medium containing 10% FBS and 0.05 mM mercaptoethanol, and the cell suspension was added to a 24-well plate at 500 μL/well. Test peptides were separately dissolved in the same medium as above, and 500 μL of each of the solutions was added to separate wells containing the cell suspension.
After overnight culture, the cells were harvested by centrifugation and washed twice with PBS containing 0.1% BSA (FACS buffer). The cells were then dispersed in 600 μL of FACS buffer containing 0.01% human γ-globulin solution (Sigma, G2388), and incubated at 4° C. for 10 minutes for blocking of Fc receptors.
After that, the cell suspension was divided into three 180-μL aliquots in 1.5-mL tubes, the tubes were centrifuged, and the cell pellets were prepared for the reaction with antibodies. To the cell pellets, FITC-labeled antibody solutions separately diluted to appropriate concentrations in FACS buffer were added in a volume of 50 μL, and incubation was performed at 4° C. for 30 minutes. The antibodies used were CD86 antibody (Pharmingen; Cat#555657), CD54 antibody (Dako; Cat# F7143) and isotype control (Mouse IgG) antibody (Dako; Cat#X0927). After the 30-minute incubation, the cells were harvested by centrifugation and washed twice with FACS buffer. The cells harvested by centrifugation were dispersed in 200 μL of FACS buffer containing 0.625 μg/mL propidium iodide, and the expression levels of the cell surface antigens on 1×10^4 viable cells were measured by flow cytometry. Forward and side scatter gating was not used for the analysis, and the relative fluorescence intensity (RFI) was calculated from the measured mean fluorescence intensities (MFI) by the following formula. […]
When the viability of the non-treated control cells (vehicle treatment cells) was 90% or more, the test was considered valid. In the case where the cell viability at a particular sample concentration used in the test was lower than 50%, the data of the CD54 level at the concentration was excluded from the evaluation.

Experiment [1] relates to Human hair follicle dermal papilla cells. The experiment can be described thus: Production of growth factors (KGF, HGF, VEGF) by hair follicle dermal papilla cells (ELISA). Format: cell-based. The note with it: 5 days. As for the experimental part: Human hair follicle dermal papilla cells in DMEM medium containing 10% FBS were seeded at 3×10^4 cells/well on a 24-well plate and cultured in a CO2 incubator overnight. On the following day, the medium was removed, test peptide solutions in DMEM medium containing 1% FBS were added to the plate, and the cells were cultured in a CO2 incubator for 5 days. The culture supernatant was harvested, and the KGF, HGF and VEGF concentrations in the culture supernatant were measured by ELISA.
In this experiment, OSK-1 and AAP-11 were used as the test peptides, and the concentrations of KGF, HGF and VEGF were measured in the same manner as in Example 9.
Background: An ELISA detects its analyte on a solid surface through an enzyme-linked reagent.

Ends that are not written are not given here.

For “ELKLIFLHRLKRLR [AAP-3, C-terminal KRLKRK of OSK-1 deleted]”, in the experiment with THP-1 cells, the “expression of CD54” value was “considerably less active” and the “expression of CD86” value is “considerably less active”. Also, the “production of the growth factors (KGF, HGF and VEGF concentrations in the culture supernatant)” value (shortened to “production of the growth factors”) in experiment [1] is given as “less effective than OSK-1”.
For “ELKLIFLHRLKRLRKR [AAP-2, C-terminal LKRK of OSK-1 deleted]”, in the experiment with THP-1 cells, the “expression of CD54” value is listed as “considerably less active” and the “expression of CD86” value was “considerably less active”. The “production of the growth factors” value in experiment [1] was “less effective than OSK-1”.
FLHRLKRLRKRL [AAP-11]: in the experiment on THP-1 cells, the “expression of CD54” value was “no considerable reduction in the activity was observed” and the “expression of CD86” value is “no considerable reduction in the activity was observed”. For the same substance, in experiment [1], the “production of the growth factors” value is reported as “promoted the production of the indicated growth factors in a concentration dependent manner”.
Consider “HRLKRLRKRLKRK [AAP-12, seven N-terminal amino acids of OSK-1 deleted]”, for which, in the experiment with THP-1 cells, the “expression of CD54” value is listed as “considerably less active than OSK-1” and the “expression of CD86” value is “considerably less active than OSK-1”.
Regarding LIFLHRLKRLRKRL [AAP-6], in the experiment with THP-1 cells, the “expression of CD54” value was “no considerable reduction in the activity was observed” and the “expression of CD86” value is on record as “no considerable reduction in the activity was observed”.
With “LKLIFLHRLKRMRKRLdKRK (LKLIFLHRLKRMRKRLKRK; not fully specified (residues 16, 17)) [SR-08, reference compound]”, the “expression of CD54” value in the experiment on THP-1 cells was “OSK-1 was more highly active for inducing CD54 expression than SR-07 and SR-08”.
On the same count and under the same terms, next, “MLKLIFLHRLKRMRKRLdKRK (MLKLIFLHRLKRMRKRLKRK; not fully specified (residues 17, 18)) [SR-07, reference compound]”: “OSK-1 was more highly active for inducing CD54 expression than SR-07 and SR-08”.

The values are drawn from patent US10112978B2, “Peptide and use thereof” (OSAKA UNIVERSITY, priority 2014, dated 2018).
